For data set [1], the system named is Histone deacetylase (HDAC). Nature of the data set: Histone deacetylase assay (Fluor-de-Lys) in MCF-7 cells. The note with it: MCF-7, 24 h, IC50 concentrations. Format: cell-based, human. The essentials: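 MCF-7 cells exposed 24 h to increasing compound concentrations; HDAC activity measured with Fluor-de-Lys cellular fluorometric kit (ex 360/em 460 nm), also in nuclear extracts from treated cells. IC50 taken for inhibition of cellular HDAC activity.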

Data set [2] deals with Lewis lung carcinoma (LLC). Nature of the data set: In vivo efficacy study, Lewis lung carcinoma mouse model. Set-up: species or system C57BL mice. The conditions noted are these: day 7-14. The procedure:
A preliminary in vivo efficacy study was carried out on a mouse model (see Table 3 below):
Lewis lung carcinoma (LLC) was implanted i.m. (2·10^6 cells inoculum) into the right hind leg of 8-week old inbred C57BL mice (24±3 g body weight). Chemotherapy was delayed until the tumor became visible (day 7).

For the next data set, the system named is A549 cells. The data set is described as follows: MTT cytotoxicity assay, A549. Format: cell-based, human. The conditions noted are these: A549, 72 h exposure, MTT; read-out: IC50 (median growth inhibitory concentration). The procedure: Cisplatin (CDDP) and oxaliplatin (OXP) were dissolved just before the experiment in a 0.9% NaCl solution.
Human prostate adenocarcinoma (PC3) cells were obtained from European Collection of Cell Cultures (ECACC, Salisbury, UK). Human ovarian cancer cell lines A2780 and its cisplatin resistant variant, A2780cisR, were kindly provided by Prof.
Triplicate cultures were established for each treatment.

A further data set deals with A2780 cells. The data set is described as follows: MTT cytotoxicity assay, A2780. Format: cell-based, human. The note with it: A2780, 72 h exposure, MTT; read-out: IC50 (median growth inhibitory concentration). The essentials:
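Platinum(IV) complexes from fresh DMSO stocks, final 0.5% DMSO in medium; cisplatin and oxaliplatin dissolved fresh in 0.9% NaCl. A2780, cisplatin-resistant A2780cisR and A498 cells tested by MTT in triplicate cultures.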

Another data set deals with BxPC3 cells. The data set is described as follows: MTT cytotoxicity assay, BxPC3. Format: cell-based, human. The note with it: BxPC3, 72 h exposure, MTT; read-out: IC50 (median growth inhibitory concentration). Background: Tetrazolium assays rely on reduction of a dye to a coloured formazan, in cell work by metabolically active cells.
For the next data set, the system named is 2008 cells. The data set is described as follows: Glycolysis (Mito-ID O2 sensor), 2008. Format: cell-based, human. The note with it: IC50 concentrations, 24 h. The procedure: Glycolysis. The cellular glycolytic activity was assessed using the Mito-ID® O2 Extracellular Sensor Kit according to the manufacturer's instructions (Enzo Life Sciences, Farmingdale, N.Y.). Briefly, PSN-1 cells (15·10^3 per well) were seeded in 96-well plates. After 24 h, cells were treated with Mito-ID® O2 Sensor Probe Solution containing the tested compounds at the appropriate concentration. Fluorescence was estimated using a plate reader (Fluoroskan Ascent FL, Labsystem, Finland) at 350 nm (excitation) and 610 nm (emission).
Based on the above findings, we investigated the effects determined by derivatives 3a and 3b on 2008 and PSN-1 cancer cell aerobic glycolysis and mitochondria function.
However, these effects were magnified in PSN-1 cells, having reduction of cellular glycolytic activity of about 36 and 20% for 3a and 3b, respectively. […] This latter result could be explained tacking into consideration that the reference compound [Pt(DACH)(56Phen)] itself, that is also released upon reduction of 3a and 3b, is effective in hampering cellular glycolysis in both tested cancer cell lines. The difference between 3a and 3b might be attributed to the added effect of DCA.

Another data set deals with PSN-1 cells. The data set is described as follows: Nuclear DNA fragmentation ELISA, PSN-1. The data set is classed as cell-based, human. The conditions noted are these: 48 h, IC50. The procedure:
FIGS. 13A-13B provide: FIG. 13A) Cytochrome c release. […] FIG. 13B) Nuclear DNA fragmentation. […] Quantitative estimation of DNA fragmentation was obtained with an ELISA test. Data are the means of five independent experiments. Error bars indicate SD.
After 48 h of treatment a roughly 20-fold increase in histone-DNA formation was detected with 3a with respect to controls.
(In general: In an ELISA, binding on a coated surface is turned into a signal by an enzyme label.)

The nature of data set [3]: Stability in phosphate buffer (NMR). Format: physicochemical. The note with it: phosphate buffer pH 7, 37° C. The procedure:
A solution 2.0 mM of 3a (Scheme 4) in sodium phosphate buffer (50 mM, pH=7) was kept at 37° C. for 3 days. NMR and HPLC measurements were performed every day.
A 2.0 mM solution of 3a in phosphate buffer at pH=7 was kept at 37° C. in order to assay its stability by mean of NMR spectroscopy (FIG. 7). […] The signal at 7.40 ppm was assigned to the amidic proton. The signals at 7.18 and 6.48 belong to the aromatic ring of the coordinated phenylbutyrate. The large difference in chemical shifts between the 2 ortho protons of the phenyl ring and the 3 meta and para protons, coupled with the unusually low chemical shifts for the aromatic ortho protons, indicates a strong intramolecular interaction with the phenanthroline. Finally, the peak at 6.37 belongs to the coordinated DCA.

On to `[NH2][Pt]([NH2])([Cl])[Cl]` [CDDP, Cisplatin, reference compound], for which the “effect on HDAC activity (in words)” value in data set [1] is given as “not effective in modifying HDAC activity”. Further, the “Average tumor weight (mean ± SD, g)” value in data set [2] (daily dose 1.5 mg kg^-1 i.p.) is reported as 0.150 ± 0.07 g; in data set [2] (daily dose 3 mg kg^-1 i.p.), 0.044 ± 0.07 g. Also, the entries for the “Inhibition of tumor growth (%)” value in data set [2] (daily dose 1.5 mg kg^-1 i.p.) and in data set [2] (daily dose 3 mg kg^-1 i.p.) were 73.35% and 92.18%, respectively. For the same compound, the figures for the IC50 in the data set with A549 cells, in the data set with A2780 cells and in the data set with BxPC3 cells were 8.35 ± 0.87 µM, 2.8 ± 0.2 µM and 11.4 ± 1.14 µM, respectively.
Turning to “c,c,t,t,c,c-[(DACH)(56Phen)(PhBu)Pt(μ-OOC—(CH2)2—CONH(CH2)3COO)—Pt(DCA)(NH3)2 (Cl2)](TFA)2 [Compound 3a]”, the “reduction of glycolysis processes compared with untreated control cells” value in the data set with 2008 cells is given as “about 25%”. For the same compound, the “fold increase in histone-DNA formation with respect to controls” value with PSN-1 cells was “roughly 20 fold”. Further, the “Pt(IV)-phen reduced” value is given as “about 9%” in data set [3] (after 2 days), 10% in data set [3] (after 3 days) and “approximately 6.5%” in data set [3] (after one day). Moreover, the “Pt(IV)-cisPt NMR signal (1101 ppm) relative to Pt(IV)-phen signal (703 ppm)” value in data set [3] (after a day) stood at 15%.

For the origin of these results see patent US20190290656A1, “PT(IV) PRODRUGS” (YISSUM RESEARCH DEVELOPMENT COMPANY OF THE HEBREW …, priority 2015, published 2019).
